In patent US20260000632A1, “STRUCTURALLY MODIFIED FATTY ACIDS FOR IMPROVING GLYCEMIC CONTROL AND TREATING INFLAMMATORY BOWEL DISEASE” (Northsea Therapeutics B.V., priority 2018, published 2026):

Legend:
[1] = Intestinal tissue distribution of radioactivity by quantitative whole-body autoradiography (QWBA); assay type: in vivo; details: male albino rat, single oral [14C]-Compound B 50 mg/kg
Method: This study was conducted to determine the intestinal tissue distribution of radioactivity in male albino rats following a single oral administration of [14C]-Compound B using quantitative whole-body autoradiography (QWBA). The tissue distribution in rats following a single oral dose of [14C]-Compound B at 50 mg/kg (ca 5 MBq/kg) was studied by QWBA analysis up to 168 hours after dosing.

[2] = test system: B6.V-Lepob/Jrj mice (ob/ob); experiment: Glucose tolerance (0-120 mins) after 28-day treatment in ob/ob mice; assay type: in vivo, mouse; details: 28 days
Method: This study was carried out to assess the effects of chronic treatment with Compound B or Compound A on glucose tolerance in a T2DM rodent model.
For assessing the effects of Compound B, B6.V-Lepob/Jrj mice (ob/ob) mice were administered Compound B at one of 2 doses, 125 and 250 mg/kg for 28 days. […] After the oral glucose load, plasma glucose was measured at multiple time points from and AUC (0-120 mins) for glucose was calculated.

plasma insulin = experiment: Plasma insulin at 24 h in lean male SPD rats; assay type: in vivo, rat; details: Compound A 74 mg/kg or Compound B 84 mg/kg oral, non-significant
Method: (§1) To establish the acute effects of oral administration of Compound A and Compound B upon active GLP-1 and insulin concentrations, lean (about 300 g) male Sprague-Dawley (SPD) rats were divided into groups (n=6-8) and fed 74 and 84 mg/kg body weight of Compound A or Compound B respectively, either with or without concurrent administration of a dipeptidyl peptidase 4 (DPP-4) inhibitor 60 minutes prior to an oral glucose tolerance test (OGTT) as outlined below. Parallel groups receiving either corn oil alone (corn oil+vehicle, n=10) or corn oil and a DPP-4 inhibitor (“DPP-4 i”) (corn oil+ (DPP-4 i), n=10) were included as controls. The DPP-4 inhibitor was linagliptin.
(§2) A second oral dose of 74 and 84 mg/kg bodyweight of Compound A or Compound B respectively was administered at 240 minutes and ad lib feeding was initiated. A second dose of DPP-4 inhibitor was administered at 480 mins prior to lights out. Blood samples were collected at 24 h for measurement of active GLP-1 and insulin. All values are mean, figures depict mean values (SEM).

active GLP-1 = experiment: Active GLP-1 during oral glucose tolerance test (OGTT) and at 24 h in lean male SPD rats; assay type: in vivo, rat
Method: as §1, §2

[3] = 1 hour, *affected by high levels of radioactivity in adjacent contents
[4] = 2 hours, *affected by high levels of radioactivity in adjacent contents
[5] = 4 hours, *affected by high levels of radioactivity in adjacent contents
[6] = 8 hours, *affected by high levels of radioactivity in adjacent contents

SMILES: CC/C=C\C/C=C\C/C=C\C/C=C\C/C=C\CCCCSC(CC)(CC)C(=O)O [Compound B, 2-ethyl-2-((5Z,8Z,11 Z,14Z,17Z)-icosa-5,8,11,14,17-pentaenylthio)butanoic acid]
- Time of peak concentrations in the small intestinal mucosa [1]: 4 h
- Radioactivity concentration, Caecum mucosa ([1]; 1 hour): 1.04 μg equivalents of Compound B/g of tissue
- Radioactivity concentration, Large intestine mucosa ([1]; 1 hour): 0.740 μg equivalents of Compound B/g of tissue
- Radioactivity concentration, Oesophageal wall ([1]; 1 hour): 5.83 μg equivalents of Compound B/g of tissue
- Radioactivity concentration, Rectum mucosa ([1]; 1 hour): 0.417 μg equivalents of Compound B/g of tissue
- Radioactivity concentration, Stomach mucosa (fundus) ([1]; 1 hour): 8.08 μg equivalents of Compound B/g of tissue
- Radioactivity concentration, Small intestine mucosa [1, 3]: 127* μg equivalents of Compound B/g of tissue
- Radioactivity concentration, Stomach mucosa (non-fundic) [1, 3]: 17.3* μg equivalents of Compound B/g of tissue
- Radioactivity concentration, Caecum mucosa ([1]; 2 hours): 1.73 μg equivalents of Compound B/g of tissue
- Radioactivity concentration, Large intestine mucosa ([1]; 2 hours): 0.332 μg equivalents of Compound B/g of tissue
- Radioactivity concentration, Oesophageal wall ([1]; 2 hours): 1.72 μg equivalents of Compound B/g of tissue
- Radioactivity concentration, Rectum mucosa ([1]; 2 hours): 0.883 μg equivalents of Compound B/g of tissue
- Radioactivity concentration, Stomach mucosa (fundus) ([1]; 2 hours): 4.31 μg equivalents of Compound B/g of tissue
- Radioactivity concentration, Small intestine mucosa [1, 4]: 56.5* μg equivalents of Compound B/g of tissue
- Radioactivity concentration, Stomach mucosa (non-fundic) [1, 4]: 28.1* μg equivalents of Compound B/g of tissue
- Radioactivity concentration, Large intestine mucosa ([1]; 4 hours): 0.920 μg equivalents of Compound B/g of tissue
- Radioactivity concentration, Oesophageal wall ([1]; 4 hours): 1.29 μg equivalents of Compound B/g of tissue
- Radioactivity concentration, Rectum mucosa ([1]; 4 hours): 1.03 μg equivalents of Compound B/g of tissue
- Radioactivity concentration, Stomach mucosa (fundus) ([1]; 4 hours): 5.38 μg equivalents of Compound B/g of tissue
- Radioactivity concentration, Caecum mucosa [1, 5]: 93.1* μg equivalents of Compound B/g of tissue
- Radioactivity concentration, Small intestine mucosa [1, 5]: 158* μg equivalents of Compound B/g of tissue
- Radioactivity concentration, Stomach mucosa (non-fundic) [1, 5]: 300* μg equivalents of Compound B/g of tissue
- Radioactivity concentration, Oesophageal wall ([1]; 8 hours): 5.86 μg equivalents of Compound B/g of tissue
- Radioactivity concentration, Small intestine mucosa ([1]; 8 hours): 42.7 μg equivalents of Compound B/g of tissue
- Radioactivity concentration, Stomach mucosa (fundus) ([1]; 8 hours): 7.84 μg equivalents of Compound B/g of tissue
- Radioactivity concentration, Caecum mucosa [1, 6]: 112* μg equivalents of Compound B/g of tissue
- Radioactivity concentration, Large intestine mucosa [1, 6]: 120* μg equivalents of Compound B/g of tissue
- Radioactivity concentration, Rectum mucosa [1, 6]: 3.57* μg equivalents of Compound B/g of tissue
- Radioactivity concentration, Stomach mucosa (non-fundic) [1, 6]: 252* μg equivalents of Compound B/g of tissue
- Radioactivity concentration, Large intestine mucosa ([1]; 1 day): 2.63 μg equivalents of Compound B/g of tissue
- Radioactivity concentration, Oesophageal wall ([1]; 1 day): 2.25 μg equivalents of Compound B/g of tissue
- Radioactivity concentration, Rectum mucosa ([1]; 1 day): 0.870 μg equivalents of Compound B/g of tissue
- Radioactivity concentration, Small intestine mucosa ([1]; 1 day): 22.6 μg equivalents of Compound B/g of tissue
- Radioactivity concentration, Stomach mucosa (fundus) ([1]; 1 day): 1.15 μg equivalents of Compound B/g of tissue
- Radioactivity concentration, Stomach mucosa (non-fundic) ([1]; 1 day): 3.87 μg equivalents of Compound B/g of tissue
- Radioactivity concentration, Caecum mucosa ([1]; 1 day, *affected by high levels of radioactivity in adjacent contents): 113* μg equivalents of Compound B/g of tissue
- Radioactivity concentration, Caecum mucosa ([1]; 3 days): 0.319 μg equivalents of Compound B/g of tissue
- Radioactivity concentration, Large intestine mucosa ([1]; 3 days): 1.06 μg equivalents of Compound B/g of tissue
- Radioactivity concentration, Oesophageal wall ([1]; 3 days): BLQ (Tissue concentration below lower limit of quantification)
- Radioactivity concentration, Rectum mucosa ([1]; 3 days): BLQ (Tissue concentration below lower limit of quantification)
- Radioactivity concentration, Small intestine mucosa ([1]; 3 days): 0.197 μg equivalents of Compound B/g of tissue
- Radioactivity concentration, Stomach mucosa (fundus) ([1]; 3 days): BLQ (Tissue concentration below lower limit of quantification)
- Radioactivity concentration, Stomach mucosa (non-fundic) ([1]; 3 days): 0.253 μg equivalents of Compound B/g of tissue
- Radioactivity concentration, Caecum mucosa ([1]; 7 days): 0.374 μg equivalents of Compound B/g of tissue
- Radioactivity concentration, Large intestine mucosa ([1]; 7 days): 0.296 μg equivalents of Compound B/g of tissue
- Radioactivity concentration, Oesophageal wall ([1]; 7 days): BLQ (Tissue concentration below lower limit of quantification)
- Radioactivity concentration, Rectum mucosa ([1]; 7 days): 0.641 μg equivalents of Compound B/g of tissue
- Radioactivity concentration, Small intestine mucosa ([1]; 7 days): BLQ (Tissue concentration below lower limit of quantification)
- Radioactivity concentration, Stomach mucosa (fundus) ([1]; 7 days): BLQ (Tissue concentration below lower limit of quantification)
- Radioactivity concentration, Stomach mucosa (non-fundic) ([1]; 7 days): BLQ (Tissue concentration below lower limit of quantification)
- AUC (0-120 mins) glucose ([2]; 250 mg/kg once-daily oral gavage): potent and highly significant (p<0.001) reduction
- Glucose tolerance after 2 g/kg oral glucose load ([2]; both doses, 125 and 250 mg/kg once-daily oral gavage): improved glucose tolerance
- Increase in plasma insulin concentration at 24 h versus corn oil+vehicle and corn oil+DPP4 inhibitor (plasma insulin; compound alone): 25%
- Increase in plasma insulin concentration at 24 h versus corn oil+vehicle and corn oil+DPP4 inhibitor (plasma insulin; in combination with DPP4 inhibitor): 40%
- Increase in active GLP-1 (AUC 0-60 mins) versus corn oil+vehicle (active GLP-1; Compound B 84 mg/kg oral in combination with DPP4 inhibitor (linagliptin), OGTT, p<0.05): > 2 fold
- Effect on active GLP-1 concentration at 24 h versus corn oil+vehicle (active GLP-1; in combination with DPP4 inhibitor, Compound A 74 mg/kg or Compound B 84 mg/kg oral, two doses): significantly (p<0.01) increased
